Experimental data from ChEMBL document CHEMBL3046548, “Genetic and biochemical analysis of a laboratory-selected spirodiclofen-resistant strain of Tetranychus urticae Koch (Acari: Tetranychidae)” (2009).
Values after ≈ are worked out from the molar mass of the structure shown. Structures can show the parent of a compound that is named as a salt.

Columns and labels:
Tetranychus urticae [1] = assay: Insecticidal activity against spirodiclofen-resistant Tetranychus urticae SR-VP (two-spotted spider mite) adults in kidney bean leaf disks assessed as mortality measured after 2 days; format: functional; settings: foliar, 48 h
Tetranychus urticae [2] = assay: Resistance ratio of LC50 for spirodiclofen-resistant Tetranychus urticae SR-VP (two-spotted spider mite) adults to LC50 for spirodiclofen-susceptible Tetranychus urticae LS-VL (two-spotted spider mite) adults; format: functional
Tetranychus urticae [3] = assay: Insecticidal activity against spirodiclofen-susceptible Tetranychus urticae LS-VL (two-spotted spider mite) adults in kidney bean leaf disks assessed as mortality after 2 day; format: functional; settings: foliar, 48 h
Tetranychus urticae [4] = assay: Insecticidal activity against spirodiclofen-resistant Tetranychus urticae SR-VP (two-spotted spider mite) eggs in kidney bean leaf disks assessed as mortality measured after 1 day; format: functional
Tetranychus urticae [5] = assay: (§1) Resistance ratio of LC50 for Tetranychus urticae SR-VP (two-spotted spider mite) larvae reared under continuous pressure of 5000 mg/L spirodiclofen for 5 months in presence of 200 mg/L GSH depleter, DEM to LC50 for Tetranychus urticae LS-VL (two-spotted spider mite) larvae in presence of 200 mg/L GSH depleter, DEM; format: functional
Tetranychus urticae [6] = assay: Synergism factor, ratio of LC50 for Tetranychus urticae SR-VP (two-spotted spider mite) larvae to LC50 for Tetranychus urticae SR-VP larvae in presence of 200 mg/L GSH depleter, DEM; format: functional
Tetranychus urticae [7] = assay: Insecticidal activity against Tetranychus urticae SR-VP (two-spotted spider mite) larvae reared under continuous pressure of 5000 mg/L spirodiclofen for 5 months assessed as mortality treated 3-4 hr after 200 mg/L GSH depleter, DEM application measured after 1 day; format: functional
Tetranychus urticae [8] = assay: Synergism factor, ratio of LC50 for Tetranychus urticae LS-VL (two-spotted spider mite) larvae to LC50 for Tetranychus urticae LS-VL larvae in presence of 200 mg/L GSH depleter, DEM; format: functional
Tetranychus urticae [9] = assay: Insecticidal activity against Tetranychus urticae LS-VL (two-spotted spider mite) larvae […] assessed as mortality treated 3-4 hr after 200 mg/L GSH depleter, DEM application measured after 1 day; format: functional
Tetranychus urticae [10] = assay: Insecticidal activity against spirodiclofen-resistant Tetranychus urticae SR-VP (two-spotted spider mite) larvae in kidney bean leaf disks assessed as mortality measured after 1 day; format: functional; settings: foliar, 24 h
Tetranychus urticae [11] = assay: Resistance ratio of LC50 for spirodiclofen-resistant Tetranychus urticae SR-VP (two-spotted spider mite) larvae to LC50 for spirodiclofen-susceptible Tetranychus urticae LS-VL (two-spotted spider mite) larvae; format: functional
Tetranychus urticae [12] = assay: Insecticidal activity against spirodiclofen-susceptible Tetranychus urticae LS-VL (two-spotted spider mite) larvae in kidney bean leaf disks assessed as mortality after 1 day; format: functional; settings: foliar, 24 h
Tetranychus urticae [13] = assay: Insecticidal activity against Tetranychus urticae LS-VL (two-spotted spider mite) larvae reared under continuous pressure of 5000 mg/L spirodiclofen for 5 months assessed as mortality treated 3-4 hr after 200 mg/L cytochrome P450 monooxygenase inhibitor, PBO application measured after 1 day
Tetranychus urticae [14] = assay: Insecticidal activity against Tetranychus urticae SR-VP (two-spotted spider mite) larvae reared under continuous pressure of 5000 mg/L spirodiclofen for 5 months assessed as mortality treated 3-4 hr after 200 mg/L cytochrome P450 monooxygenase inhibitor, PBO application measured after 1 day
Tetranychus urticae [15] = assay: as §1, with “10” for “200”, “esterase inhibitor, DEF” for “GSH depleter, DEM”; format: functional
Tetranychus urticae [16] = assay: Synergism factor, ratio of LC50 for Tetranychus urticae SR-VP (two-spotted spider mite) larvae to LC50 for Tetranychus urticae SR-VP larva in presence of 10 mg/L esterase inhibitor, DEF; format: functional
Tetranychus urticae [17] = assay: Insecticidal activity against Tetranychus urticae LS-VL (two-spotted spider mite) larvae […] assessed as mortality treated 3-4 hr after 10 mg/L esterase inhibitor, DEF application measured after 1 day; format: functional
Tetranychus urticae [18] = assay: Insecticidal activity against Tetranychus urticae SR-VP (two-spotted spider mite) larvae reared under continuous pressure of 5000 mg/L spirodiclofen for 5 months assessed as mortality treated 3-4 hr after 10 mg/L esterase inhibitor, DEF application measured after 1 day; format: functional
Tetranychus urticae [19] = assay: Synergism factor, ratio of LC50 for Tetranychus urticae LS-VL (two-spotted spider mite) larvae to LC50 for Tetranychus urticae LS-VL larva in presence of 10 mg/L esterase inhibitor, DEF; format: functional
Tetranychus urticae [20] = assay: Resistance ratio of LC50 for spirodiclofen-resistant Tetranychus urticae SR-VP (two-spotted spider mite) larvae reared under continuous pressure of 5000 mg/L spirodiclofen for 5 months to LC50 for spirodiclofen-susceptible Tetranychus urticae LS-VL (two-spotted spider mite) larvae; format: functional
Tetranychus urticae [21] = assay: Insecticidal activity against spirodiclofen-resistant Tetranychus urticae SR-VP (two-spotted spider mite) larvae maintained on bean plants sprayed with 5000 mg/L spirodiclofen assessed as mortality measured at 6 months after mite transfer onto unsprayed bean plants; format: functional
Tetranychus urticae [22] = assay: Insecticidal activity against spirodiclofen-resistant Tetranychus urticae SR-VP (two-spotted spider mite) larvae maintained on bean plants sprayed with 5000 mg/L spirodiclofen assessed as mortality; format: functional
Tetranychus urticae [23] = assay: Insecticidal activity against haploid F2 progeny generated from reciprocal cross between male Tetranychus urticae LS-VL (two-spotted spider mite) with female Tetranychus urticae SR-VP in kidney bean leaf disk assessed as mortality; format: functional; settings: foliar
Tetranychus urticae [24] = assay: Insecticidal activity against haploid F2 progeny generated from reciprocal cross between female Tetranychus urticae LS-VL (two-spotted spider mite) with male Tetranychus urticae SR-VP in kidney bean leaf disk assessed as mortality; format: functional; settings: foliar
Tetranychus urticae [25] = assay: Insecticidal activity against diploid F1 progeny generated from reciprocal cross between male Tetranychus urticae LS-VL (two-spotted spider mite) with female Tetranychus urticae SR-VP in kidney bean leaf disk assessed as mortality; format: functional
Tetranychus urticae [26] = assay: Insecticidal activity against diploid F1 progeny generated from reciprocal cross between female Tetranychus urticae LS-VL (two-spotted spider mite) with male Tetranychus urticae SR-VP in kidney bean leaf disk assessed as mortality; format: functional
Tetranychus urticae [27] = assay: Resistance ratio of LC50 for spirodiclofen-resistant Tetranychus urticae SR-VP (two-spotted spider mite) eggs to LC50 for spirodiclofen-susceptible Tetranychus urticae LS-VL (two-spotted spider mite) eggs; format: functional
Tetranychus urticae [28] = assay: Insecticidal activity against spirodiclofen-resistant Tetranychus urticae SR-VP (two-spotted spider mite) larvae reared under continuous pressure of 5000 mg/L spirodiclofen for 5 months in kidney bean leaf disks assessed as mortality measured after 1 day; format: functional; settings: foliar, 24 h
Tetranychus urticae [29] = assay: Insecticidal activity against spirodiclofen-susceptible Tetranychus urticae LS-VL (two-spotted spider mite) eggs in kidney bean leaf disks assessed as mortality after 1 day; format: functional; settings: foliar, 24 h

SMILES: CC[C@H](C)[C@H]1O[C@]2(C=C[C@@H]1C)C[C@@H]1C[C@@H](C/C=C(\C)[C@@H](O[C@H]3C[C@H](OC)[C@@H](O[C@H]4C[C@H](OC)[C@@H](O)[C@H](C)O4)[C@H](C)O3)[C@@H](C)/C=C/C=C3\CO[C@@H]4[C@H](O)C(C)=C[C@@H](C(=O)O1)[C@]34O)O2.CO[C@H]1C[C@H](O[C@H]2[C@H](C)O[C@@H](O[C@@H]3/C(C)=C/C[C@@H]4C[C@@H](C[C@]5(C=C[C@H](C)[C@@H](C(C)C)O5)O4)OC(=O)[C@@H]4C=C(C)[C@@H](O)[C@H]5OC/C(=C\C=C\[C@@H]3C)[C@]54O)C[C@@H]2OC)O[C@@H](C)[C@@H]1O [ABAMECTIN]
- LC50 (Tetranychus urticae [1]): 0.52 µg/mL
- RatioLC50 (Tetranychus urticae [2]): 1.3
- LC50 (Tetranychus urticae [3]): 0.4 µg/mL

SMILES: CCCCCCCCCCCCC1=C(OC(C)=O)C(=O)c2ccccc2C1=O [ACEQUINOCYL]
- LC50 (Tetranychus urticae [1]): 29.6 µg/mL (≈ 77 µM)
- LC90 (Tetranychus urticae [4]): 60 µg/mL (≈ 156 µM)
- RatioLC50 (Tetranychus urticae [2]): 3.8
- LC50 (Tetranychus urticae [3]): 7.7 µg/mL (≈ 20 µM)

SMILES: COc1ccc(-c2ccccc2)cc1NNC(=O)OC(C)C [BIFENAZATE]
- LC50 (Tetranychus urticae [1]): 2.4 µg/mL (≈ 7.99 µM)
- RatioLC50 (Tetranychus urticae [2]): 2
- LC50 (Tetranychus urticae [3]): 1.2 µg/mL (≈ 4 µM)

SMILES: CCOC(=O)/C=C\C(=O)OCC [DIETHYL MALEATE]
- RatioLC50 (Tetranychus urticae [5]): 189
- RatioLC50 (Tetranychus urticae [6]): 1
- LC50 (Tetranychus urticae [7]): 1310 µg/mL
- RatioLC50 (Tetranychus urticae [8]): 0.7
- LC50 (Tetranychus urticae [9]): 6.9 µg/mL

SMILES: CCOc1cc(C(C)(C)C)ccc1C1COC(c2c(F)cccc2F)=N1 (stereo not drawn) [ETOXAZOLE]
- LC50 (Tetranychus urticae [10]): 0.61 µg/mL (≈ 1.7 µM)
- RatioLC50 (Tetranychus urticae [11]): 0.8
- LC50 (Tetranychus urticae [12]): 0.76 µg/mL (≈ 2.11 µM)

SMILES: CCCCOCCOCCOCc1cc2c(cc1CCC)OCO2 [PIPERONYL BUTOXIDE]
- LC50 (Tetranychus urticae [13]): 3.9 µg/mL (≈ 11.5 µM)
- LC50 (Tetranychus urticae [14]): 380 µg/mL (≈ 1120 µM)

SMILES: CC(C)(C)c1ccc(CSc2cnn(C(C)(C)C)c(=O)c2Cl)cc1 [PYRIDABEN]
- LC50 (Tetranychus urticae [1]): 135 µg/mL (≈ 370 µM)
- RatioLC50 (Tetranychus urticae [2]): 0.9
- LC50 (Tetranychus urticae [3]): 156 µg/mL (≈ 427 µM)

SMILES: CCCCSP(=O)(SCCCC)SCCCC [S,S,S,-TRIBUTYLPHOSPHOROTRITHIOATE]
- RatioLC50 (Tetranychus urticae [15]): 64
- RatioLC50 (Tetranychus urticae [16]): 3.3
- LC50 (Tetranychus urticae [17]): 6.3 µg/mL (≈ 20 µM)
- LC50 (Tetranychus urticae [18]): 402 µg/mL (≈ 1280 µM)
- RatioLC50 (Tetranychus urticae [19]): 0.8

SMILES: CCC(C)(C)C(=O)OC1=C(c2ccc(Cl)cc2Cl)C(=O)OC12CCCCC2 [SPIRODICLOFEN]
- LC50 (Tetranychus urticae [4]; Tetranychus urticae, SR-VP, foliar, 24 h): 17.9 µg/mL (≈ 43.5 µM)
- RatioLC50 (Tetranychus urticae [20]): 277
- LC50 (Tetranychus urticae [21]): 5930 µg/mL (≈ 14400 µM)
- LC50 (Tetranychus urticae [22]): 10000 µg/mL (≈ 24300 µM)
- LC50 (Tetranychus urticae [23]): 44 µg/mL (≈ 107 µM)
- LC50 (Tetranychus urticae [24]): 56 µg/mL (≈ 136 µM)
- LC90 (Tetranychus urticae [25]): 236 µg/mL (≈ 574 µM)
- LC50 (Tetranychus urticae [25]; Tetranychus urticae, foliar): 85 µg/mL (≈ 207 µM)
- LC90 (Tetranychus urticae [26]): 150 µg/mL (≈ 365 µM)
- LC50 (Tetranychus urticae [26]; Tetranychus urticae, foliar): 68 µg/mL (≈ 165 µM)
- RatioLC50 (Tetranychus urticae [27]): 2
- LC50 (Tetranychus urticae [28]): 1340 µg/mL (≈ 3270 µM)
- LC50 (Tetranychus urticae [29]): 8.7 µg/mL (≈ 21.2 µM)
- LC50 (Tetranychus urticae [12]): 4.9 µg/mL (≈ 11.9 µM)

SMILES: Cc1cc(C)c(C2=C(OC(=O)CC(C)(C)C)C3(CCCC3)OC2=O)c(C)c1 [SPIROMESIFEN]
- LC50 (Tetranychus urticae [10]): 14.5 µg/mL (≈ 39.1 µM)
- RatioLC50 (Tetranychus urticae [11]): 18
- LC50 (Tetranychus urticae [12]): 0.79 µg/mL (≈ 2.13 µM)

SMILES: CCc1nn(C)c(C(=O)NCc2ccc(C(C)(C)C)cc2)c1Cl [TEBUFENPYRAD]
- LC50 (Tetranychus urticae [1]): 138 µg/mL (≈ 412 µM)
- RatioLC50 (Tetranychus urticae [2]): 2.2
- LC50 (Tetranychus urticae [3]): 63.5 µg/mL (≈ 190 µM)
